Measured values taken from US20220071989A1, “METHODS OF TREATING NEGATIVE SYMPTOMS OF SCHIZOPHRENIA USING DEUTERATED DEXTROMETHORPHAN AND QUINIDINE” (AVANIR PHARMACEUTICALS, INC., priority 2019, published 2022).
Where a name gives a salt, the structure may show the parent alone.

Columns and labels:
[1] = Plasma concentrations of d6-DM, d3-DX, d3-3-MM and Q (Example 1); conditions: 2 to 3 hours after morning dose
Method: Plasma samples were separated by centrifugation and then frozen at −20° C. until assayed at the analytical unit.

[2] = PK parameters (Cmax, AUC) estimated from measured drug concentrations with a PK model (Example 1); assay type: in vivo, human
[3] = tested on: negative symptoms of schizophrenia; conditions: Lee et al. 2015, cited from earlier work
[4] = Visit 4 (Week 6), d6-DM/Q/d6-DM/Q, All metabolizer types
[5] = Visit 4 (Week 6), d6-DM/Q/d6-DM/Q, Extensive metabolizer subgroup
[6] = Visit 4 (Week 6), d6-DM/Q/d6-DM/Q, Intermediate metabolizer subgroup
[7] = Visit 4 (Week 6), d6-DM/Q/d6-DM/Q, Poor metabolizer subgroup
[8] = Visit 4 (Week 6), d6-DM/Q/d6-DM/Q, Ultra-Rapid metabolizer subgroup
[9] = Visit 7 (Week 12), d6-DM/Q/d6-DM/Q, All metabolizer types
[10] = Visit 7 (Week 12), d6-DM/Q/d6-DM/Q, Extensive metabolizer subgroup
[11] = Visit 7 (Week 12), d6-DM/Q/d6-DM/Q, Intermediate metabolizer subgroup
[12] = Visit 7 (Week 12), d6-DM/Q/d6-DM/Q, Ultra-Rapid metabolizer subgroup
[13] = Visit 7 (Week 12), placebo/d6-DM/Q, All metabolizer types
[14] = Visit 7 (Week 12), placebo/d6-DM/Q, Extensive metabolizer subgroup
[15] = Visit 7 (Week 12), placebo/d6-DM/Q, Intermediate metabolizer subgroup
[16] = Visit 7 (Week 12), placebo/d6-DM/Q, Poor metabolizer subgroup
[17] = subgroup of 13 patients with ALDH2*2 allele

## [2H]C([2H])([2H])Oc1ccc2c(c1)[C@]13CCCC[C@@H]1[C@H](C2)N(C([2H])([2H])[2H])CC3 [d6-DM, deuterated [d6]-dextromethorphan hydrobromide]
[1]; d6-DM/Q/d6-DM/Q group at Visit 4 (Week 6)
  mean plasma concentration, all patients: 49.7 ng/mL
[1]; d6-DM/Q/d6-DM/Q group at Visit 7 (Week 12)
  mean plasma concentration, all patients: 53.2 ng/mL
[1]; placebo/d6-DM/Q group at Visit 7 (Week 12)
  mean plasma concentration, all patients: 54.0 ng/mL
[2]; [4]
  AUC, mean (SD): 456.2 (362.05) h × ng/mL
  AUC, median (min, max): 355.4 (73, 1793) h × ng/mL
  Cmax, mean (SD): 51.6 (38.53) ng/mL
  Cmax, median (min, max): 40.0 (8, 192) ng/mL
[2]; [5]
  AUC, mean (SD): 333.3 (255.24) h × ng/mL
  AUC, median (min, max): 271.9 (73, 1183) h × ng/mL
  Cmax, mean (SD): 38.2 (27.99) ng/mL
  Cmax, median (min, max): 32.2 (8, 130) ng/mL
[2]; [6]
  AUC, mean (SD): 573.2 (418.66) h × ng/mL
  AUC, median (min, max): 401.7 (139, 1793) h × ng/mL
  Cmax, mean (SD): 63.9 (44.15) ng/mL
  Cmax, median (min, max): 48.1 (17, 192) ng/mL
[2]; [7]
  AUC, mean (SD): 204.6 (na) h × ng/mL
  AUC, median (min, max): 204.6 (205, 205) h × ng/mL
  Cmax, mean (SD): 28.7 (na) ng/mL
  Cmax, median (min, max): 28.7 (29, 29) ng/mL
[2]; [8]
  AUC, mean (SD): 468.0 (na) h × ng/mL
  AUC, median (min, max): 468.0 (468, 468) h × ng/mL
  Cmax, mean (SD): 58.6 (na) ng/mL
  Cmax, median (min, max): 58.6 (59, 59) ng/mL
[2]; [9]
  AUC, mean (SD): 473.4 (375.01) h × ng/mL
  AUC, median (min, max): 369.4 (70, 1810) h × ng/mL
  Cmax, mean (SD): 53.4 (40.09) ng/mL
  Cmax, median (min, max): 42.3 (8, 194) ng/mL
[2]; [10]
  AUC, mean (SD): 336.7 (244.01) h × ng/mL
  AUC, median (min, max): 288.9 (70, 1127) h × ng/mL
  Cmax, mean (SD): 38.7 (26.74) ng/mL
  Cmax, median (min, max): 34.1 (8, 124) ng/mL
[2]; [11]
  AUC, mean (SD): 601.9 (442.90) h × ng/mL
  AUC, median (min, max): 375.7 (132, 1810) h × ng/mL
  Cmax, mean (SD): 67.0 (46.98) ng/mL
  Cmax, median (min, max): 45.9 (16, 194) ng/mL
[2]; [12]
  AUC, mean (SD): 498.8 (na) h × ng/mL
  AUC, median (min, max): 498.8 (499, 499) h × ng/mL
  Cmax, mean (SD): 62.1 (na) ng/mL
  Cmax, median (min, max): 62.1 (62, 62) ng/mL
[2]; [13]
  AUC, mean (SD): 439.6 (248.41) h × ng/mL
  AUC, median (min, max): 413.0 (53, 1081) h × ng/mL
  Cmax, mean (SD): 50.8 (27.44) ng/mL
  Cmax, median (min, max): 47.7 (7, 121) ng/mL
[2]; [14]
  AUC, mean (SD): 404.3 (239.02) h × ng/mL
  AUC, median (min, max): 368.0 (53, 1081) h × ng/mL
  Cmax, mean (SD): 47.2 (26.57) ng/mL
  Cmax, median (min, max): 44.2 (7, 121) ng/mL
[2]; [15]
  AUC, mean (SD): 492.1 (271.83) h × ng/mL
  AUC, median (min, max): 492.9 (124, 945) h × ng/mL
  Cmax, mean (SD): 56.2 (29.94) ng/mL
  Cmax, median (min, max): 56.1 (15, 106) ng/mL
[2]; [16]
  AUC, mean (SD): 427.4 (na) h × ng/mL
  AUC, median (min, max): 427.4 (427, 427) h × ng/mL
  Cmax, mean (SD): 47.9 (na) ng/mL
  Cmax, median (min, max): 47.9 (48, 48) ng/mL

## COc1ccc2c(c1)[C@@]13CCCC[C@H]1[C@@H](C2)N(C)CC3 [dextromethorphan, (+)-3-methoxy-N-methylmorphinan]
[3]; add-on to risperidone
  PANSS and SANS scores, risperidone and dextromethorphan vs. risperidone and placebo (in words): No significant differences
[3]; [17]
  PANSS scores including PANSS negative symptom subscale, dextromethorphan vs. placebo (in words): No significant difference
  total SANS scores, dextromethorphan vs. placebo (in words): significant difference
